What was measured:
[1] = tested on: anti-NGF mAb NGF30; assay: Competitive ELISA, anti-NGF mAb NGF30 binding to immobilized NGF (selectivity control)
Protocol: The effect of compounds I-B and LM-24 on the binding between NGF and p75 was tested in competitive ELISA assays, where the antagonists prevent soluble p75 from binding to immobilized NGF. The selectivity of antagonism was evaluated by lack of effect upon NGF-TrkA or lack of effect between NGF and anti-NGF monoclonal antibody (mAb) NGF30 interactions (FIG. 1A).
Competitive ELISAs were performed as described (Saragovi et al., 1998). The procedure immobilized 50 ng/well NGF, or pro-NGF (Alomone Labs, Israel) onto polystyrene 96-well microtest plates, with washing and blocking with binding buffer (BB; phosphate buffered saline containing 0.5% bovine serum albumin). The following primary reagents in BB were added: recombinant chimeric p75-Fc or recombinant chimeric TrkA-Fc (R&D), or anti-NGF mAb NGF30 (Saragovi et al., 1998); each at 50 nM. The competitors I-B and the other test compounds (or control LM-24) were added at the indicated concentrations, and the plates were incubated for 45 minutes. After washing 3× in BB, HRP-conjugated secondary reagents (Sigma) were added for 30 min (goat anti-human Fc for p75-Fc and for TrkA-Fc; and goat anti-rat Ab for NGF30 mAb), and then wells were washed 3× in BB and 1× in PBS. Peroxidase activity was determined colorimetrically using the substrate TMB One Solution (Promega). The reaction was stopped with 0.5 N H2SO4 and the plates were read at 450 nm (Benchmark Plus, Bio-Rad). Assays were repeated n>4 times, with replicates of 4 wells each assay. […] Wells with no NGF immobilized but with all other reagents added were treated as background (<15% of maximal signals) and standardized to 0% binding.

[2] = tested on: retinal ganglion cells (RGCs); assay: ON axotomy model, quantification of surviving RGCs (fluorogold labeled); assay type: in vivo; details: rat ON axotomy, one intravitreal injection 3 μg, day 14; contralateral normal eye = 100%; control axotomy 10%
Protocol: (§1) Wistar rats (female, 250-300 g; Charles River) were kept in a 12 hours dark-light cycle with food and water ad libitum. All animal manipulations were performed between 9 AM and 12 AM. Deep anesthesia was used during cauterization (induction of glaucoma), ON transection, fluorogold labeling, intraocular injection procedures, Optical Coherence Tomography measurements, and euthanasia (ketamine, xylazine, acepromazine injected intraperitoneally: 50/5/1 mg/kg, as per IACUC recommendations). For measuring IOP, light anesthesia was used (a gas mixture of Oxygen, 2% isofluorane mixture, at a rate of 2.5 liter/min, as per IACUC recommendations).
The ON axotomy model in the rat (Bai et al., 2010a) was used. […]
(§2) For studies in the glaucoma animal model the injections were performed at days 14 and 21 after cauterization. […] Thus, in this paradigm there is pre-existing damage for 14 days before treatment (measured at ˜8% RGC death (Shi et al., 2007; Shi et al., 2008)); and the treatments require long-lived efficacy in the constant presence of retinal stress due to high IOP. […]
(§3) Quantification of labeled RGCs was performed as reported (Shi et al., 2007; Shi et al., 2008). […] Pictures for each freshly flat-mounted retina were taken using a Zeiss fluorescence microscope (Carl Zeiss Meditec, Jena, Germany), with 12 pictures/retina at 20× magnification. […]

[3] = tested on: retinal ganglion cells (RGCs); assay: Glaucoma (episcleral vein cauterization) model, quantification of surviving RGCs; assay type: in vivo; details: rat glaucoma, intravitreal injections days 14 and 21, endpoint day 42; contralateral normal eye = 100%; control glaucoma 74-77%
Protocol: as §1
The episcleral vein cauterization (EVC) model of rat (Shi et al., 2007; Shi et al., 2008) was used. […]
as §2, §3

## CC(C)NC(=O)N(C(=O)Cn1cnc2c1c(=O)n(C)c(=O)n2C)C(C)C [I-B, 1,3-Diisopropyl-1-[2-(1,3-dimethyl-2,6-dioxo-1,2,3,6-tetrahydro-purin-7-yl)-acetyl]-urea]
[1]; binding to immobilized NGF, no cpd = 100%, mAb NGF30 50 nM, as described for FIG. 1A
  NGF30 binding AVERAGE: 88%
[1]; competitive ELISA, FIG. 1A, compound at 30 μM
  effect on mAb NGF30 binding to NGF: did not interfere
[2]
  RGCs surviving: 37%
[3]
  RGCs surviving: 92%
